IC50 data for three compounds are collected here from US10011571B2, “Preparation method for aromatic heterocyclic compound used as selective JAK3 and/or JAK1 kinase inhibitor and application of aromatic heterocyclic compound” (SHENZHEN CHIPSCREEN BIOSCIENCES, LTD., priority 2014, dated 2018).

The target of test [1] is JAK2 (Homo sapiens (Human), UniProt O60674). Kind of test: Eurofins IC50Profiler radiometric kinase assay, JAK2. The format is biochemical. The settings on record: 9 semilog concentrations. The source says: (§1) A proportion of the compounds of the present invention are subjected to kinase profile screening (KinaseProfiler™)) and enzymatic inhibitory activity (IC50Profiler™)) assay by entrusting Eurofins company (http://www.eurofins.com). Besides the kinases in the JAK family, the kinases that have been screened for their activity also include most Group 3F and Group 4 kinases (ITK, BLK, TBK1, VEGFRs, ERBBs, etc.), and blood system related kinases (Zhang J. et al. 2009, Nat. Rev. Cancer., 9: 28-39). The concentration of the test compound for kinase profile screening is 1 μM, and a gradient of 9 semilog concentration gradients are used to determine IC50. Detection is carried out according to standard procedure of Eurofins Company. Briefly, according to the requirements of different kinase reactions, 0.2 μL test compound (50 μM, dissolved in dimethyl sulfoxide (DMSO)) is added to reaction buffer containing specific kinase (the buffer system containing 20 mM MOPS, 1 mM EDTA, 0.01% Brij-35, 5% Glycerol, 0.1% β-mercaptoethanol, 1 mg/mL BSA, or 50 mM TRIS, 0.1 mM EGTA, 0.1 mM Na3VO4, 0.1% β-mercaptoethanol, 1 mg/mL BSA, based on the type of kinase used). Subsequently, a kinase specific substrate at a final concentration of 50 μM (specific substrate used for specific kinase), 10 mM Mg Acetate and isotope-labeled γ-^33P ATP (radio-activity of about 500 cpm/pmol) are sequentially added to a total volume of 10 μL for the reaction system. After incubation at room temperature for 40 min, the reaction is terminated by adding 3% phosphoric acid solution. The mixture is then transferred to a filter-type low temperature spray dryer (P30 filtermat), and washed by 75 mM phosphoric acid solution for 3 times and by methanol once. After drying, radio-activity is detected. For specific procedure, see the standard procedure provided by Eurofins Company: http://www.eurofins.com/media/9724077/kinaseprofiler_assay_protocol_guide_eurofins_v64.pdf).
JAK2, sequence (O60674 whole entry, species assumed): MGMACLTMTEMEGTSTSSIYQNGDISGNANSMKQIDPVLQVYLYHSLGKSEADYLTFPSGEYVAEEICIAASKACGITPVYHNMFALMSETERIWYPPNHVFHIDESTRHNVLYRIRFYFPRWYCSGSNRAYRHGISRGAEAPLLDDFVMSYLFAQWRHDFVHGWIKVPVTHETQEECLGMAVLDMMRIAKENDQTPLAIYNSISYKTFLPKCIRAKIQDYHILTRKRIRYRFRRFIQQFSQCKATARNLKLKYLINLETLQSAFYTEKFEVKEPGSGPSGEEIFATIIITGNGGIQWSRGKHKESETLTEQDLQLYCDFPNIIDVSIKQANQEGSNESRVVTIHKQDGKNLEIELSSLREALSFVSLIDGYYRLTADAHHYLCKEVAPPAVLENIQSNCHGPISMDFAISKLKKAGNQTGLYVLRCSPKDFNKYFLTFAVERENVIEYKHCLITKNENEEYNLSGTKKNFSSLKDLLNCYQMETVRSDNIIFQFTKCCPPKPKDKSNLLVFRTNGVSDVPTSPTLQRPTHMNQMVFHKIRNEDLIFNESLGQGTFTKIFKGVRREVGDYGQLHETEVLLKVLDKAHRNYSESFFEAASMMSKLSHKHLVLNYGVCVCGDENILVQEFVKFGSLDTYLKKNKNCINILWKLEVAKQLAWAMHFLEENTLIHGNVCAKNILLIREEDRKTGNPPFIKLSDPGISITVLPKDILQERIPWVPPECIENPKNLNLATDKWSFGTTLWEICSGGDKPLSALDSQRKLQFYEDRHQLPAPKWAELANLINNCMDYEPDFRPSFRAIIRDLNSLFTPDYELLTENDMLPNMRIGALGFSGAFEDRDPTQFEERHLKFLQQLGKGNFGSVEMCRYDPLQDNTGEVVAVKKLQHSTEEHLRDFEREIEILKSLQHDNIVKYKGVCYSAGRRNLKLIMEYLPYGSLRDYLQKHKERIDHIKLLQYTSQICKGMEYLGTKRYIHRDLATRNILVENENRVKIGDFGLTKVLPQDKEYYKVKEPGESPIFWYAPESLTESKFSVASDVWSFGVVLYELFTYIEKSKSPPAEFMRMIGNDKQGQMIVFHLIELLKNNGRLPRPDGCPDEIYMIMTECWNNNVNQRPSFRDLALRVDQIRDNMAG

Test [2] deals with BLK (Homo sapiens, UniProt P51451). In words: Eurofins IC50Profiler radiometric kinase assay, BLK. Format: biochemical. The settings on record: 9 semilog concentrations.
BLK, sequence (P51451 2-505 limits assumed): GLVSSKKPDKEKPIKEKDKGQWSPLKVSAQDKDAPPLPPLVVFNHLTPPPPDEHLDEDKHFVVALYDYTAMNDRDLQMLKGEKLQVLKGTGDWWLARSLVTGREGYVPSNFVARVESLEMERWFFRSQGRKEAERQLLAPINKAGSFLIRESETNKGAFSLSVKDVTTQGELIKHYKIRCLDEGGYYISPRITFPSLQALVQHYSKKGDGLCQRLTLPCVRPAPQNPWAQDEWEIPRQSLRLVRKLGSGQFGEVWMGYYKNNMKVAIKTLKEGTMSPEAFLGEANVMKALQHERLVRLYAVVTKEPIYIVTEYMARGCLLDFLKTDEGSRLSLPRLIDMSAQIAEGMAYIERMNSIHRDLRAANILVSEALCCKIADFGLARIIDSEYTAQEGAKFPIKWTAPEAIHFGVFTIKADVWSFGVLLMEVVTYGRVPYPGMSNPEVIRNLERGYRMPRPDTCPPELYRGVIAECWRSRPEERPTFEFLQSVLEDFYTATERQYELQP
Source text: as §1

Test [3] addresses TBK1 (Homo sapiens (Human), UniProt Q9UHD2). Kind of test: Eurofins IC50Profiler radiometric kinase assay, TBK1. The format is biochemical. The settings on record: 9 semilog concentrations.
Source text: as §1

Test [4] has as its system EPO/JAK2/STAT5a (UT-7). Kind of test: Intracellular activity assay, EPO induced STAT5 phosphorylation in UT-7/EPO. The format is cell-based. The settings on record: Homo sapiens, inhibition of STAT5 phosphorylation, EPO 10 ng/mL. The source says: (§2) In this experiment, western blot (WB) and flow cytometry are used to evaluate the intracellular activities of the test compounds by comparing the relative levels of the signals of phosphorylated and non-phosphorylated STATs in 5 cell models, including U937, THP-1, CTLL-2, UT-7/EPO and activated human periphery blood cell (hPBC). The primary antibody and secondary antibody used in WB hybridization in this experiment are purchased from Cell Signaling Company (http://www.cellsignal.com). The fluorescence-labeled antibodies used in flow cytometry are purchased from eBiosciences Company (http://www.ebioscience.com).
UT-7/EPO is a cell line formed from the marrow of a patient suffering from […] after cultured with EPO induction, and it has obvious response to cytokine EPO. The signal for EPO is transmitted via the homodimer of JAK2 and induces the phosphorylation of downstream STAT5, while a JAK inhibitor suppresses the phosphorylation of STAT5 by suppressing the activity of JAK2. The intracellular inhibitory activity of the compounds on JAK2 can be evaluated by detecting the change of the phosphorylation level of STAT5.
(§3) (1) Treatment by the compound: the experiment is carried out in a 6-well plate. […]
(§4) (2) Cell fixation and fluorescence labeling: the cells are fixed using paraformaldehyde (30 min), and subsequently treated for membrane permeability in chilled methanol (15 min). […]
(§5) (3) Detection by flow cytometry: the detection is carried out using Guava® easyCyte flow cytometer according to the instruction. The median fluorescent intensity (MFI) of a sample is detected using an appropriate cell population. On such a basis, the relative signal intensities are calculated for the phosphorylated STATs treated by the compounds at different concentrations by reference to the signal of the negative (with no factor stimulation) and the positive control (with both factor stimulation and solvent control) in the experiment, so that the IC50 of the compound for the inhibitory activity on STATs phosphorylation can be evaluated.

In test [5] the test system is IL-2/JAK1 & 3/STAT5 (hPBC). In words: Intracellular activity assay, IL-2 induced STAT5 phosphorylation in hPBC. The settings on record: Homo sapiens; inhibition of STAT5 phosphorylation, activated hPBC, IL-2 10 ng/mL. The format is cell-based.
Source text: as §2
Cytokine IL-2 dependent proliferation is formed after activation by co-stimulation of human periphery blood cell (hPBC) with CD3 antibody. The growth signal pathway is mediated by the heterodimer of JAK1/3 and induces the phosphorylation of downstream STAT5. The intracellular inhibitory activity of the compounds on JAK1/3 can be evaluated by detecting the change of the phosphorylation level of STAT5.
as §3, §4, §5

TBK1, sequence (Q9UHD2 whole entry, species assumed): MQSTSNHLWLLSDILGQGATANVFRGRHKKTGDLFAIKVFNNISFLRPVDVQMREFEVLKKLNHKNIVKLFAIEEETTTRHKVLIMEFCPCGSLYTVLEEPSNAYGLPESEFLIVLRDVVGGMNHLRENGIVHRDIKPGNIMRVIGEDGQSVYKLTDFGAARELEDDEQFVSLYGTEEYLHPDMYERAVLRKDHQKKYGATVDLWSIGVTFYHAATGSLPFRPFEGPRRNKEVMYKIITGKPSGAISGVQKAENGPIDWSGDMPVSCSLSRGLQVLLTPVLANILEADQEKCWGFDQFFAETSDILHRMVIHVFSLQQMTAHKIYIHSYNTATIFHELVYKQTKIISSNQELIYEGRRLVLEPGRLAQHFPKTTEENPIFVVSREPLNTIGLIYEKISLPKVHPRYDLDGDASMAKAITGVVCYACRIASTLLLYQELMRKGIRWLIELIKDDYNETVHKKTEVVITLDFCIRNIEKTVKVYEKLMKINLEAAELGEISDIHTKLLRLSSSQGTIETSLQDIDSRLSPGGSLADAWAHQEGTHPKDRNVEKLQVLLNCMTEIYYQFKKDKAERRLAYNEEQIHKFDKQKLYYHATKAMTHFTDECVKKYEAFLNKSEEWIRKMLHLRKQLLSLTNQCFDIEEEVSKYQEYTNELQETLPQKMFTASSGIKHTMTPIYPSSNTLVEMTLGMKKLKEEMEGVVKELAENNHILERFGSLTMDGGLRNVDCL

In general, IC50 refers to the concentration that gives 50% inhibition. A high value points to weaker potency in that assay. Turning to `C=CC(=O)N(C)c1cc(Nc2ncc(Cl)c(NCCCNC(=O)c3ccc(C#N)cc3)n2)ccc1F` [Example 7, N-(3-(5-chloro-2-(4-fluoro-3-(N-methylacrylamido)phenylamino)pyrimidinyl-4-amino)propyl)-4-cyano-benzamide], the IC50 in test [1] was 1400 nM; in test [2], 286 nM; in test [3], 162 nM; in test [4], above 3000 nM; in test [5] it was 160 nM.
On the same counts, the results for `C=CC(=O)N(C)c1cc(Nc2ncc(Cl)c(NCCCNC(=O)c3ccc(C(F)(F)F)cc3)n2)ccc1F` [Example 22, N-(3-(5-chloro-2-(4-fluoro-3-(N-methylacrylamido)phenylamino)pyrimidinyl-4-amino)propyl)-4-trifluoromethylbenzamide] are above 10000 nM, 1660 nM, above 10000 nM, above 3000 nM and 200 nM.
Consider `C=CC(=O)N(C)c1cc(Nc2ncc(Cl)c(NCCCNC(=O)c3ccc(F)cc3)n2)ccc1F` [Example 23, N-(3-(5-chloro-2-(4-fluoro-3-(N-methylacrylamido)phenylamino)pyrimidinyl-4-amino)propyl)-4-fluorobenzamide], for which the IC50 in test [1] is 1920 nM; in test [2] it was 855 nM; in test [3], 664 nM; in test [4] it was above 3000 nM; in test [5] it was 240 nM.
